{
  "source": "patent US12570643B2",
  "about": "“3-aryloxy-3-five-membered heteroaryl propylamine compound, and crystal form and use thereof” (Shanghai Leado Pharmatech Co. Ltd., priority 2019, dated 2026)",
  "key": {"[1]": {"test_system": "acetic acid writhing pain model in mice", "experiment": "Acetic acid writhing pain model in mice", "type": "in vivo, ICR mice", "method": "ICR mice, male, 22-25 g, were fasted for food 2 h before administration, but can have water. All ICR mice were weighed and randomly grouped with the number of animals>10 per group. […] The mice were administered via intragastric administration according to the weight of mice. 1.5% acetic acid solution (0.1 ml/10 g) was intraperitoneally injected at 1 hour after administration, and the number of times of visceral pain in each group within 30 minutes was observed, the mice were counted once when the abdomen was concave, the trunk and hind legs were extended and the hips were elevated, and the number of times of these phenomena occurred within 30 min was finally counted."}, "TRPA1": {"molecular_target": "T1, TRPA1 (Mus musculus, UniProt Q8BLA8)", "T1 construct": "expressed in transfected cells; host or cells: HEK293 cells stably expressing TRPA1", "T1 sequence (Q8BLA8 whole entry)": "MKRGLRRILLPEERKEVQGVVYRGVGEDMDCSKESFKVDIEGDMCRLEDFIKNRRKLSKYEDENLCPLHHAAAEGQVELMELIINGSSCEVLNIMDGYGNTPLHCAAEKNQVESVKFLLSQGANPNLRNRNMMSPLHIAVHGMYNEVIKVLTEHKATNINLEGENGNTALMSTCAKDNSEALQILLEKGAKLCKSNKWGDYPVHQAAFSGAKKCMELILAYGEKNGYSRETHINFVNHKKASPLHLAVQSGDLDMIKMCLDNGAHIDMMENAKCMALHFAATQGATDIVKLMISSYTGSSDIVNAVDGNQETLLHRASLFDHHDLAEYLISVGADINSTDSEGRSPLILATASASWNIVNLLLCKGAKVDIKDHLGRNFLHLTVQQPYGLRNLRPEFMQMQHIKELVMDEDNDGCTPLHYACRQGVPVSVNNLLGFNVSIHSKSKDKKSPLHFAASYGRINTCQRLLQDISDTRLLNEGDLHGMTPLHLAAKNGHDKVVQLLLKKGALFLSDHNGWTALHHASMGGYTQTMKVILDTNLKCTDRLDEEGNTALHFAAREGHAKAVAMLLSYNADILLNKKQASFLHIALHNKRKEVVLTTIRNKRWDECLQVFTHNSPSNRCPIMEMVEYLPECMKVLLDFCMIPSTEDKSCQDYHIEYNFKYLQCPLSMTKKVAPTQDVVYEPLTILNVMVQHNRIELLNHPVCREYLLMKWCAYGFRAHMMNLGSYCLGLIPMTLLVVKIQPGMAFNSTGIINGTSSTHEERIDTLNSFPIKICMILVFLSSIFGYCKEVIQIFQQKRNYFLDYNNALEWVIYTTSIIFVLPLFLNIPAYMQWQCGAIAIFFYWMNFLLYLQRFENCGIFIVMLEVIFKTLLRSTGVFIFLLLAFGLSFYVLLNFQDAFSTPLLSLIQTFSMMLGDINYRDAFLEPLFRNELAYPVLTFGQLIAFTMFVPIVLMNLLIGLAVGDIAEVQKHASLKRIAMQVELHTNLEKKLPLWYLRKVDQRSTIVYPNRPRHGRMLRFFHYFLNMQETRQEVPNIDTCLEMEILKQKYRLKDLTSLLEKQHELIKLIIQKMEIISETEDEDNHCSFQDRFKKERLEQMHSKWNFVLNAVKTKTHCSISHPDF", "experiment": "TRPA1 inhibitory activity, IonWorks Barracuda (IWB) automatic patch clamp detection", "type": "cell-based", "conditions": "automatic patch clamp", "method": "In this example, the compounds prepared in some examples of the present invention (shown in Table 1) were tested for their inhibitory activity on the transient receptor potential channel protein TRPA1. Wherein, compound of formula A (WO2010075353) was used as positive control: […]\nTest method by using IonWorks Barracuda (IWB) automatic patch clamp detection: HEK293 cells stably expressing TRPA1 were placed in a 37° C., 5% CO2 incubator and incubated with DMEM medium containing 15 μg/mL Blasticidin S HCl, 200 μg/mL Hygromycin B and 10% FBS serum in a T175 culture flask. When the cell density grew to […], the culture medium was removed, the cells were washed with calcium and magnesium free phosphate buffered saline (PBS), and 3 mL of Trypsin was added and digested for 2 minutes, and 7 mL of culture medium was added to terminate the digestion. […]\nData recording and current amplitude measurement and export were completed by IWB Software (version 2.5.3, Molecular Devices Corporation, Union City, CA). The statistics of the well with a sealing impedance lower than 20 M Ω were not recorded. The original current data was corrected by software, the TRPA1 current amplitude was measured in +100 mV. […] The dose-effect curve and IC50 of compounds were fitted and calculated by GraphPad Prism 5.02 (GraphPad Software, San Diego, CA)."}, "HepG2 cells": {"test_system": "HepG2 cells", "experiment": "Hepatocyte toxicity (CCK-8 cytotoxicity test)", "type": "cell-based", "conditions": "Homo sapiens, 72 hours, read-out: hepatotoxicity (IC50)", "method": "(§1) HepG-2 and SH-SY5Y cells were prepared and placed in 10 cm dish and incubated at 37° C., 5% CO2 in a cell incubator; the cells were digested with trypsinize, resuspended and then counted. Based on a system of 100 μl/well, 8000 cells were transferred to a 96-well plate. The cells were incubated in a 37° C., 5% CO2 cell incubator for 24 hours; a gradient concentration system of compound I-1 (prepared in Example 2) was prepared, 2 times diluted, the system was 100 μl/well. The supernatant in the 96-well plate cell culture system on the first day was removed, and a fresh prepared drug concentration system was added to the corresponding culture plate wells culturing cells (set up duplicate wells). […] After completion of the culture, the supernatant was removed from the cell culture system of the 96-well plate, 100 μl of detection solution (medium containing 10% CCK-8) was add to each well, and incubated in a cell incubator at 37° C. and 5% CO2 for 1 hour, then taken it out and measured the absorbance at 450 nm with a microplate reader. Data were processed, cytotoxicity was calculated, and IC50 was calculated by GraphPad Prism. […]\n(§2) A (dosing): absorbance of the well having cells, CCK-8 solution and drug solution\n(§3) A (blank): absorbance of the well having medium and CCK-8 solution, without cells.\n(§4) A (0 dosing): absorbance of the well having cells and CCK-8 solution, without drug solution […]"}, "SNL model in rat": {"test_system": "SNL model in rat", "experiment": "SNL model in rat, mechanical hyperalgesia test", "type": "in vivo, SD rats", "conditions": "10 mg/kg intragastric, 1 hour after administration, hydrochloride used; control group 3.967 ± 0.775", "experimental": "SD rats were taken for surgery, male, SPF grade, mass 150 g-180 g. The surgical procedure was performed aseptically. The animals were anesthetized with sodium pentobarbital (50 mg/kg, intraperitoneal injection). The surgical area of the waist of animals was shaved, and the skin was disinfected three times with iodophor and 70% ethanol. Start the operation after the skin was dry. A longitudinal incision was made in the posterior part of the sacral bone of the animal's waist with a scalpel to expose the left paravertebral muscles, and the muscle tissue was separated with a distractor to expose the vertebra. The left spinal nerves L5 and L6 were separated, ligated with 6-0 silk thread, and the wounds were sutured. After the surgery, the animals were placed on an electric blanket and injected subcutaneously with 5 mL normal saline to prevent dehydration. When the animal was completely awake (free to move), put the animal back into the cage.\nAfter the surgery, the animals were adapted in the experimental environment for 15 minutes/day for 3 days.\nAfter administration, mechanical hyperalgesia test was performed. The rats were placed individually in a plexiglas box with a grid at the bottom of the box to ensure that the feet of the rats can be tested. Rats would adapt for 15 minutes before the test. […] The rapid paw withdrawal of the animal during the test was recorded as a pain response. The paw withdrawal of the animal when the test fiber left the animal's skin was also recorded as a pain response. If the animal moved or walked, it will not be recorded as a pain response, the test should be repeated. […]\nMechanical hyperalgesia was expressed as the paw withdrawal threshold (PWT) in the behavioral test of rats, which was calculated according to the following equation: 50% response threshold (g)=(10(^Xf+kδ))/10,000 • Xf=the final test fiber value used in the test • K=table value • δ=Average difference\nData were collected using Excel software and analyzed using Prism 6.01 (Graph pad software, Inc.) software."}, "[2]": {"experiment": "Neurocytotoxicity (CCK-8 cytotoxicity test)", "type": "cell-based", "conditions": "human, SH-SY5Y cells", "method": "as §1, §2, §3, §4"}},
  "data": [
    {"smiles": "CNCC[C@@H](Oc1cccc2ccoc12)c1cccs1", "note": "[Compound I-1, (R)-3-(benzofuran-7-yloxy)-N-methyl-3-(thiophen-2-yl)propan-1-amine]", "values": [
      {"measurement": "number of visceral pains lower than normal saline control group", "setting": "[1]; 5 mg/kg intragastric", "result": 50, "unit": "%"},
      {"measurement": "ED50", "setting": "[1]; Mus musculus, po, intragastric, mice, read-out: half effective dose (ED50) in acetic acid writhing model", "result": "< 5", "unit": "mg/kg"},
      {"measurement": "activity ratio (IC50 of compound C2/IC50 of compound I-1)", "setting": "TRPA1", "result": "about 6.3"},
      {"measurement": "IC50", "setting": "HepG2 cells", "result": "~114", "unit": "µM"},
      {"measurement": "PWT", "setting": "SNL model in rat", "result": "7.869 ± 2.846", "unit": "g"},
      {"measurement": "IC50 at 72 h", "setting": "[2]", "result": "~101", "unit": "µM"}
    ]}
  ]
}
